Consider two molecules from patent EP4800036A1, “ANTIBODY OR TROP2 ANTIGEN BINDING FRAGMENT BINDING TO TROP2, ANTI-TROP2 CAR, AND USE” (priority 2023, dated 2025).

Experiment [1] has as its system triple-negative breast cancer. Conditions: third-line treatment; cited from earlier work.
For the next experiment, the system named is NSCLC. The note with it: 44 patients with NSCLC; cited from earlier work.
For the next experiment, the system named is small cell lung cancer. The note with it: 50 patients with small cell lung cancer; cited from earlier work.
A further experiment relates to advanced NSCLC. The note with it: patients with advanced NSCLC; cited from earlier work.
In experiment [2] the target is T1, Human TROP-2/TACSTD2 Protein, His Tag (ACRO, catalog No. TR2-H5223) (human, UniProt P09758 27-274).
T1 construct: extracellular domain; Bought protein; also called Trop2-His; Trop2-His antigen; not shown: His tag
T1 sequence (looked up): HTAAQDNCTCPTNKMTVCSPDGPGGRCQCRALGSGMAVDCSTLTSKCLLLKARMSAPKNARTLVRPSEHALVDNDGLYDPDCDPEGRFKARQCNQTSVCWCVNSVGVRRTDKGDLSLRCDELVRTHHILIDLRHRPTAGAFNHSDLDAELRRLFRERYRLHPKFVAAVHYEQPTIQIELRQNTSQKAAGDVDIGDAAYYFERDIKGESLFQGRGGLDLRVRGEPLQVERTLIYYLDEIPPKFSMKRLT
The experiment in a line: phage ELISA, Trop2-His coated at 1 µg/mL, anti-M13-HRP detection. (ELISA stands for enzyme-linked immunosorbent assay.)

In the case of Sacituzumab govitecan [IMMU-132], in experiment [1], the disease control rate was 45%, the “patients who experienced tumor shrinkage at least once” value is given as 74% and the “progression-free survival (PFS) rate” value was 33.3%. Besides, in the experiment with NSCLC, the PFS is 5.2 months, the “clinical benefit rate (complete response + partial response + stable disease ≥ 4 months)” value is 43% and the “objective response rate (ORR)” value is reported as 19%. Also, in the experiment with small cell lung cancer, the ORR is given as 14%, the PFS was 3.7 months and the “clinical benefit rate (complete response + partial response + stable disease ≥ 4 months)” value was 34%. The overall survival in the experiment with advanced NSCLC is on record as 9.5 months.

B1: anti-Trop2 positive clone 3 (T3), phage scFv (scFv)
scFv: DIQMTQSPSTLSASVGDRVTITCRASQSISSWLAWYQQKPGKAPKLLIYKASSLESGVPPRFSGSGSGAEFTLTISSLQPDDFATYYCQQYNSYPLTFGGGTKVEVKGGGGSGGGGSGGGGSEVQLVQSGGGLVQPGGSLRLSCEDSGFTFSSYWMSWVRQAPGKGLEWVSSISSSSSYIYYADSVKGRFTISRDNAKNSLYLQMNSLRGEDTAVYYCAREQSSSGFDYWGQGTLVTVSS
notes: also called T3 clone; T3 anti-Trop2 scFv
B1: in experiment [2], the binding result is recorded as “binds”.
